Reference: publication PMC10054477, “Design, Synthesis, and Biological Evaluation of Sulfonamide Methoxypyridine Derivatives as Novel PI3K/mTOR Dual Inhibitors” (Pharmaceuticals, 2023)

What was measured:
mTOR = target: T1, mTOR (Homo sapiens, UniProt P42345); assay: LANCE Ultra assay, mTOR inhibition; type: biochemical; conditions: mean (n = 2)
T1 construct: purchased Millipore 14-770
Description: The inhibitory activity of 22c on mTOR was determined by LANCE Ultra assay. In short, to a solution of kinase buffer, compound solution, ULight-4E-BP1 (Thr37/46) peptide substrate (PE, Catalog No. TRF0128-M), ATP, and mTOR protein (Millipore, Burlington, MA, USA, Catalog No. 14-770) were added. It was transferred to a 384-well plate and incubated at room temperature for 30 min. The LANCE detection buffer was added, which contained EDTA and Eu-antiphos-4E-BP1 (Thr37/46) antibody (PE, catalog number TRF0216-M). The plate was balanced at ambient temperature for 1 h, and the signal was detected via PerkinElmer Envision plate reader.

HCT-116 cells [1] = assay: Flow cytometry analysis of cell cycle via PI staining; type: cell-based; conditions: 24 h, dose-dependent
Description: (§1) Hoechst 33342/PI staining was used to detect cell survival and apoptosis, and flow cytometry (FACS Verse, BD, Piscataway, NJ, USA) was used to measure cell cycle and survival. Briefly, HCT-116 cells were seeded in 6-well plates and cultured with 22c at different concentrations for 24 h. As for the Hoechst 33342/PI staining assay, staining buffer with Hoechst 33342/PI was added into each plate and incubated at 4 °C for 30 min. After washing with PBS, the stained cells were observed by fluorescence microscope (IX73, Olympus, Tokyo, Japan). As for detection of cell apoptosis by flow cytometry, cells were stained with Annexin V-FITC/PI. As for cell cycle assay, the cells were fixed with 70% ethanol at 4 °C overnight, and stained with PI/RNase solution for 30 min at 37 °C. All assays were measured by flow cytometry and analyzed by Flowjo 7.6.

[2] = tested on: phosphorylation of AKT in HCT-116 cells; assay: Western blot of AKT phosphorylation; type: cell-based; conditions: 24 h
Description: HCT-116 cells were cultured in 100 mm culture dish to 70~80%, and treated with compound 22c at a specified concentration for 24 h. Then, the cells were scraped off with cell scraper, collected into a precooled 1.5 mL centrifuge tube, and lysed with RIPA buffer (Cwbio, Taizhou, China) containing PMSF (1 mM), NaF (1 mM), Na3VO4 (1 mM). The cells were lysed at 4 °C for 30 min, and the concentration of protein was determined by the BCA assay kit (Meilunbio, Dalian, China). Then the protein samples (40 μg) were used to conduct SDS-PAGE electrophoresis (Electrophoresis equipment: BIO-RAD, Hercules, CA, USA; Prefabricated-gel: ACE, Shanghai, China). After electrophoresis, the protein was transferred to PVDF membranes ([…], Millipore, USA). It was sealed with 5% non-fat milk for 1.5 h, washed with TBST for 4 times, and incubated with primary antibody at 4 °C overnight. Then, membranes were recovered to room temperature, washed with TBST for 4 times and incubated with secondary antibody (Huabio, Hangzhou, China) at room temperature for 1.5 h. After incubating, the membranes were washed with TBST for 4 times, visualized with an Amersham Imager 680 (GE, Windsor, CT, USA) through the enhanced ECL detection kit (Meilunbio, Dalian, China). […]

HCT-116 cells [3] = assay: Hoechst 33342/PI staining of survival and apoptosis; type: cell-based; conditions: 24 h
Description: as §1

HCT-116 cells [4] = assay: CCK-8 cell viability assay, HCT-116; type: cell-based; conditions: Homo sapiens, mean (n = 3)
Description: (§2) MCF-7 and HCT-116 cells were purchased from the Meilunbio Biotechnology Co., Ltd. (Dalian, China). Cells were cultured at 37 °C with 5% CO2, using DMEM or RPMI 1640 medium (Meilunbio, Dalian, China) with 10% (v/v) fetal bovine serum (Gibco, San Diego, CA, USA) and 1% (v/v) penicillin and streptomycin (Meilunbio, Dalian, China). CCK-8 assay was used to determine the inhibitory effect in vitro. In short, cells were incubated into 96-well plates at the rate of 5000 cells per well. After 24 h of incubation, 100 μL medium was added, which contained a specific concentration of the test compound. After 72 h, 10 μL CCK-8 regent was added and the plate was incubated at 37 °C, 5% CO2 for 1 h. The optical density of each hole at 450 nm was read by a BioTek TS-800 microplate reader. GraphPad Prism 9.3.1 software was used to calculate the IC50 value.

MCF-7 cells = assay: CCK-8 cell viability assay, MCF-7; type: cell-based; conditions: Homo sapiens, MCF7, 72 h, mean (n = 3)
Description: as §2

PI3Kα = target: T2, PI3Kα (Homo sapiens, UniProt P42336); assay: ADP-Glo kinase assay, PI3Kα enzyme inhibition; type: biochemical; conditions: for inhibition at 0.001 µM: at 1 nM
T2 construct: purchased SignalChem P27-122DH
T2 sequence (P42336 whole entry): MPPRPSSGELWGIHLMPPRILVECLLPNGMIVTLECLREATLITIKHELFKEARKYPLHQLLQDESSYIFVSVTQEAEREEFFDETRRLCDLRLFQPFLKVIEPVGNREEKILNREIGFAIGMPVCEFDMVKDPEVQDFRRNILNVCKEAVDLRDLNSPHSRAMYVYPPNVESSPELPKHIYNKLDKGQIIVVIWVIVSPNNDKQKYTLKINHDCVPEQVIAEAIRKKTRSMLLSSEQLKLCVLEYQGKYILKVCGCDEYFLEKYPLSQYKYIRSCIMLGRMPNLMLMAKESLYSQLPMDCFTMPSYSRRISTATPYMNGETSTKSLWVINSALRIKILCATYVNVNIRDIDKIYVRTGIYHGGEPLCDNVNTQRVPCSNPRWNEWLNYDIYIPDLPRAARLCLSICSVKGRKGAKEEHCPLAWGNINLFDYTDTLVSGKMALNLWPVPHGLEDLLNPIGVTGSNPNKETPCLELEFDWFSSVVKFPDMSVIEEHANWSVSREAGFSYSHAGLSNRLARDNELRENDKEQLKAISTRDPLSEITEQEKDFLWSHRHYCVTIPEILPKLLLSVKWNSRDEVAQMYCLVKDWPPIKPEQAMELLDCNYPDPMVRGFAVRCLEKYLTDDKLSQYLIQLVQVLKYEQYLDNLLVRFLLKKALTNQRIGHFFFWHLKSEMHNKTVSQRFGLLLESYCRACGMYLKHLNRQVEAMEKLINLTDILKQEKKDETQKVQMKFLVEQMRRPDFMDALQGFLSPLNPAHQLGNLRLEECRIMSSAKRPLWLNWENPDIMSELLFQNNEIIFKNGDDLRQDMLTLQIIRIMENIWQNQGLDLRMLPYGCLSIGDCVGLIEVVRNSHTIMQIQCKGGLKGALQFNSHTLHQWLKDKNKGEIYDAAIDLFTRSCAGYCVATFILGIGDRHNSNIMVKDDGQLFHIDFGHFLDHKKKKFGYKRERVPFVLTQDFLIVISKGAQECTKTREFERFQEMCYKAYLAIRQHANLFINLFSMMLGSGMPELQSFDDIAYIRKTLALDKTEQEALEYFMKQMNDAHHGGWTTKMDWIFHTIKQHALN
T2 sequence (P27986 whole entry partner): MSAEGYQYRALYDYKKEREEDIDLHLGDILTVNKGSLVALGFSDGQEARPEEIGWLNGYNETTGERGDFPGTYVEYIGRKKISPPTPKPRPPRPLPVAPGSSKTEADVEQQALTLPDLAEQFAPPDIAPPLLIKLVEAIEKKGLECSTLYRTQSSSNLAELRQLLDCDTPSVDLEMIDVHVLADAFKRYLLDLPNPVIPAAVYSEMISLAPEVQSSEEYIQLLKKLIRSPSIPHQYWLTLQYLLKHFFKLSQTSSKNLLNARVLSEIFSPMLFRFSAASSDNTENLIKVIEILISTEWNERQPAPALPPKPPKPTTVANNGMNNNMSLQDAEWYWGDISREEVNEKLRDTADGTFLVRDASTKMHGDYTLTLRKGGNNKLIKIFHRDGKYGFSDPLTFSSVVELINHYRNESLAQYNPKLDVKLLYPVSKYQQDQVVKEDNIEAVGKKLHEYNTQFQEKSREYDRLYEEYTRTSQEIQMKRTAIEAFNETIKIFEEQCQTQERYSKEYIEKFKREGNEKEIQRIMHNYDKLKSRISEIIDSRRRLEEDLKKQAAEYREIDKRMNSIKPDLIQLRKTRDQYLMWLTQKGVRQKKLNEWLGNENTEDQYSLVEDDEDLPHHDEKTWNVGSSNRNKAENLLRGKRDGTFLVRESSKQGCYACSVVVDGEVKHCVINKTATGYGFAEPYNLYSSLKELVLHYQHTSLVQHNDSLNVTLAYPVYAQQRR
Description: The enzymatic inhibitory assays of all target compounds against PI3Kα were performed with the ADP-Glo assay (Promega, Madison, WI, USA, catalog No. V9102/3). Briefly, compounds were continuously diluted to a certain concentration. […] The mixture was added to a 96-well plate and incubated in a dark place at ambient temperature for 40 min. Then, the kinase reaction was stopped by adding of ADP-Glo reagent and the plate was incubated again at ambient temperature for another 40 min. The kinase detection reagent was added and the signal was collected via PerkinElmer Envision plate reader (PE, Boston, MA, USA).

HCT-116 cells [5] = assay: Flow cytometry analysis of apoptosis via Annexin V-FITC/PI staining; type: cell-based; conditions: 24 h
Description: as §1

PI3Kγ = target: PI3Kγ; parameters: method as in PMID 30582807; conditions: cited from earlier work
PI3K = tested on: PI3K; parameters: method as in PMID 21388141; conditions: read-out: enzyme inhibition; cited from earlier work

T1 sequence (P42345 1362-2549 limits assumed): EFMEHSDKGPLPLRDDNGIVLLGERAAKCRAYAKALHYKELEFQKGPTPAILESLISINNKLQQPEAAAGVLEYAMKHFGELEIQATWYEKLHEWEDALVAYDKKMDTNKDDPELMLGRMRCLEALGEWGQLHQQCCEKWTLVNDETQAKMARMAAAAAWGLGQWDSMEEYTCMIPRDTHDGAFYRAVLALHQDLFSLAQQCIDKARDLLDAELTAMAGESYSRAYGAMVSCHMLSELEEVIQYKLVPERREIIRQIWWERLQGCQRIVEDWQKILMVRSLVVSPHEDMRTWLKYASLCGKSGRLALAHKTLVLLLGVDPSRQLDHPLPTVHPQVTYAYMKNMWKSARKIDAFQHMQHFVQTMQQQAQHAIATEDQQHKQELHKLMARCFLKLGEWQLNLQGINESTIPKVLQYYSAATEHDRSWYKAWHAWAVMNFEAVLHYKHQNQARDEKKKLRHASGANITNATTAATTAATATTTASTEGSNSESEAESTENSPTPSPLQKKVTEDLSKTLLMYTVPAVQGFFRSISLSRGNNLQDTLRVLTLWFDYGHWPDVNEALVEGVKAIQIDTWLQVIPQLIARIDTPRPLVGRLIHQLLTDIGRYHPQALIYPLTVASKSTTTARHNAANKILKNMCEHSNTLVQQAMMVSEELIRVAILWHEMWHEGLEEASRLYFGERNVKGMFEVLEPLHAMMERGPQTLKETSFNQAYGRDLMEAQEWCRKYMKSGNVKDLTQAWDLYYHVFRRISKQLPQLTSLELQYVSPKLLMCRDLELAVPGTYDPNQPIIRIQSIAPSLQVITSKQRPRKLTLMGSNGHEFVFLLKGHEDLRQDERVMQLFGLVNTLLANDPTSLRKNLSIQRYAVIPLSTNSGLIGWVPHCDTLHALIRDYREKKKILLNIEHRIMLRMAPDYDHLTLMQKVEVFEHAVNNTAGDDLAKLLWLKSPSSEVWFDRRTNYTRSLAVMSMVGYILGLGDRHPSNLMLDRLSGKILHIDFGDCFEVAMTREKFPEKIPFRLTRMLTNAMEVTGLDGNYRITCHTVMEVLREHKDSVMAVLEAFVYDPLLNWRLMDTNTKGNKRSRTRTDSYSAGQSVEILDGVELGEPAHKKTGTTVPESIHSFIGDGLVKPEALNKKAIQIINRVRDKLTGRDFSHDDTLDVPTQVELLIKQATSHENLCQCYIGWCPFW

In the case of `COc1ncc(-c2ccc3nccc(-c4ncc(C(=O)NC(C)C)o4)c3c2)cc1NS(=O)(=O)c1ccc(F)cc1F` [22c, 2-(6-(5-((2,4-difluorophenyl)sulfonamido)-6-methoxypyridin-3-yl)quinolin-4-yl)-N-isopropyloxazole-5-carboxamide], the IC50 (mTOR) is reported as 23 nM, the cell cycle arrest (HCT-116 cells [1]) is reported as “inhibited the cell cycle in G0/G1 phase” and the “phosphorylation of AKT (Western blot)” value [2] is reported as “could block the phosphorylation process of AKT at low concentrations”. The “apoptosis and necrosis (Hoechst33342/PI staining)” value (HCT-116 cells [3]) was “could significantly affect apoptosis and necrosis of HCT-116 cells”, the IC50 (HCT-116 cells [4]; Table 3, 72 h) was 0.02 ± 0.01 µM and the IC50 (MCF-7 cells; Table 3) was 0.13 ± 0.03 µM. For the same compound, the inhibition at 0.001 µM (PI3Kα; Table 3) was 82%, the IC50 (PI3Kα; mean (n = 2)) was 0.22 nM and the “Q1 of Annexin V-FITC/PI plot” value (HCT-116 cells [5]; 0.25 μM) was 1.95. For the same compound, the “Q2 of Annexin V-FITC/PI plot” value (HCT-116 cells [5]; 0.25 μM) was 14.1, the “Q3 of Annexin V-FITC/PI plot” value (HCT-116 cells [5]; 0.25 μM) was 0.080 and the “Q4 of Annexin V-FITC/PI plot” value (HCT-116 cells [5]; 0.25 μM) was 83.9. For the same compound, the “Q1 of Annexin V-FITC/PI plot” value (HCT-116 cells [5]; 1 μM) was 3.13, the “Q2 of Annexin V-FITC/PI plot” value (HCT-116 cells [5]; 1 μM) was 38.0 and the “Q3 of Annexin V-FITC/PI plot” value (HCT-116 cells [5]; 1 μM) was 0.14. For the same compound, the “Q4 of Annexin V-FITC/PI plot” value (HCT-116 cells [5]; 1 μM) was 58.7, the “Q1 of Annexin V-FITC/PI plot” value (HCT-116 cells [5]; 4 μM) was 2.69 and the “Q2 of Annexin V-FITC/PI plot” value (HCT-116 cells [5]; 4 μM) was 58.3. The “Q3 of Annexin V-FITC/PI plot” value (HCT-116 cells [5]; 4 μM) was 0.17, the “Q4 of Annexin V-FITC/PI plot” value (HCT-116 cells [5]; 4 μM) was 38.9 and the “apoptosis (flow cytometry), in words” value (HCT-116 cells [5]; dose-dependent) was “induce apoptosis”.

With `COc1ncc(-c2ccc3nccc(-c4ccnnc4)c3c2)cc1NS(=O)(=O)c1ccc(F)cc1F` [Omipalisib, reference compound] the IC50 (HCT-116 cells [4]; Table 1, 72 h) was 0.02 ± 0.01 µM, the IC50 (MCF-7 cells; Table 1) was greater than 4 µM and the inhibition at 0.001 µM (PI3Kα; Table 1) was 89%. For the same compound, the Ki (PI3Kγ) was […].

Work on `CCOC(=O)c1cnc2ccc(-c3cncc(NS(=O)(=O)c4ccccc4)c3)cn12` [HS-173, reference compound] yielded an IC50 (mTOR) of 110 nM, an IC50 (HCT-116 cells [4]; Table 1, 72 h) of 0.19 ± 0.05 µM and an IC50 (MCF-7 cells; Table 1) of 1.76 ± 0.44 µM. For the same compound, the IC50 (PI3K) was […].
